# In patent publication US20240408010A1, “A Nano Emulsified Phyto-Drug For Transdermal Treatment of Diabetes” (University of South Africa, priority 2021, published 2024):
# What was measured:
# albino Wistar rats = assay: Streptozotocin induction of hyperglycemic/diabetic state in albino Wistar rats; assay type: in vivo
# Experimental: Table 1 presents the results of how the metabolism of normal albino rats progresses into a hyperglycemic/diabetic state as a multiple low-dosage of streptozotocin is administered for diabetes induction.
# [1] = Solubility of diosgenin in oil phase; assay type: physicochemical; conditions: dissolved in combination with bottle gourd seed
Compound,"Glucose Concentration (albino Wistar rats; First Cycle, Day 15)","Glycated Hemoglobin GHb (albino Wistar rats; First Cycle, Day 15)","Glycated Hemoglobin HbA1c (albino Wistar rats; First Cycle, Day 15)","Glycated Hemoglobin MBG (albino Wistar rats; First Cycle, Day 15)","Glucose Concentration (albino Wistar rats; First Cycle, Dose 1 of multiple low-dosage streptozotocin)","Glucose Concentration (albino Wistar rats; First Cycle, Dose 2)","Glucose Concentration (albino Wistar rats; First Cycle, Dose 3)","Glucose Concentration (albino Wistar rats; Second cycle, Dose 4)","Glucose Concentration (albino Wistar rats; Second cycle, Dose 5)","Glucose Concentration (albino Wistar rats; Second cycle, Dose 6)","Glycated Hemoglobin GHb (albino Wistar rats; Second cycle, Dose 6)","Glycated Hemoglobin HbA1c (albino Wistar rats; Second cycle, Dose 6)","Glycated Hemoglobin MBG (albino Wistar rats; Second cycle, Dose 6)",solubility of diosgenin [1]
"CN(N=O)C(=O)N[C@H]1C(O)O[C@H](CO)[C@@H](O)[C@@H]1O (mixture of isomers) [Streptozotocin, streptozotocin]",532.17 ± 22.15 mg/dL,12.37 ± 0.81,9.50 ± 0.54%,225.39 ± 15.55,171.56 ± 22.70 mg/dL,318.31 ± 19.86 mg/dL,439.31 ± 41.00 mg/dL,425.60 ± 31.10 mg/dL,459.87 ± 33.56 mg/dL,451.89 ± 44.27 mg/dL,12.40 ± 0.28,9.50 ± 0.19%,226.03 ± 5.53,
C[C@@H]1CC[C@@]2(OC1)O[C@H]1C[C@H]3[C@@H]4CC=C5C[C@@H](O)CC[C@]5(C)[C@H]4CC[C@]3(C)[C@H]1[C@@H]2C [diosgenin],,,,,,,,,,,,,,enhanced
